Patent US8765798B2, “Peptide derivatives with therapeutic activity” (Flamma S.p.A., priority 2006, dated 2014)

Assay: carbonyl-quenching activity on HNE in vitro (residual HNE by reversed-phase chromatography)
Settings: for reacted HNE (%) t = 1 h mean / reacted HNE (%) t = 3 h mean / reacted HNE (%) t = 2 h mean: HNE 50 μM, compound 1 mM, phosphate buffer 10 mM pH 7.4, 37° C.; for reacted HNE (%) t = 1 h mean: one hour incubation; for reacted HNE (%) t = 3 h mean: three hours incubation; for reacted HNE (%) t = 2 h mean: two hours incubation
Description: The pharmacological activity of the compounds of the invention was determined in vitro evaluating their carbonyl-quenching activity on 4-hydroxy nonenal (HNE), which is known to be involved in a number of pathologies.
The carbonyl-quenching activity of a selected series of compounds of the present invention was assessed in vitro, incubating HNE (50 μM) with the tested compounds (1 mM), in phosphate buffer (10 mM) pH 7.4 at 37° C. The activity was evaluated after one, two and three hours incubation, determining the residual content of HNE by reversed-phase chromatography as described by Aldini G et al. [Biochem Biophys Res Commun. 2002 Nov. 15; 298(5):699-706]. The carbonyl-quenching activity is expressed as the reacted HNE percent compared with the HNE content in the absence of the test compounds.

NCCC(=O)N[C@@H](Cc1cnc[nH]1)C(=O)O [Carnosine, reference compound]
reacted HNE (%) t = 1 h mean: 17.39%
reacted HNE (%) t = 3 h mean: 43.59%
reacted HNE (%) t = 2 h mean: 31.65%

C[C@H](N)CC(=O)N[C@H](Cc1c[nH]cn1)C(=O)O [FL-926-A-002, (3S)-3-aminobutanoyl-D-histidine]
reacted HNE (%) t = 1 h mean: 6.568%
reacted HNE (%) t = 3 h mean: 21.58%
reacted HNE (%) t = 2 h mean: 14.26%

N[C@@H](Cc1ccccc1)[C@@H](O)C(=O)N[C@H](Cc1c[nH]cn1)C(=O)O [FL-926-A-005, (2R,3S)-3-amino-2-hydroxy-4-phenylbutanoyl-D-histidine]
reacted HNE (%) t = 1 h mean: 15.2%
reacted HNE (%) t = 3 h mean: 38.56%
reacted HNE (%) t = 2 h mean: 27.75%

N[C@@H](CC(=O)N[C@H](Cc1c[nH]cn1)C(=O)O)c1ccccc1 [FL-926-A-006, (3S)-3-amino-3-phenylpropanoyl-D-histidine]
reacted HNE (%) t = 1 h mean: 29.3%
reacted HNE (%) t = 3 h mean: 65.8531%
reacted HNE (%) t = 2 h mean: 50.7209%
carbonyl-quenching activity compared with carnosine (after one hour incubation): almost twice as high
